Each structure is given as a SMILES string.

Turning to `Cl.Cl.O=C(c1cc(C(F)(F)F)cc(C(F)(F)F)c1)N1CCN(Cc2cccnc2)C[C@H]1Cc1ccc(F)c(O)c1`, the melting point fell in the range of 50 to 60 °C.
Then `Cl.Cl.O=C(c1cc(C(F)(F)F)cc(C(F)(F)F)c1)N1CCN(Cc2cccnc2)C[C@H]1Cc1ccc(F)cc1`, with 130 to 137.3 °C; and `Cl.Cn1cc(CN2CCN(C(=O)c3cc(C(F)(F)F)cc(C(F)(F)F)c3)[C@H](Cc3ccc4ccccc4c3)C2)cn1`, with more than 250 °C; and `COc1cc(C(=O)N2CCN(Cc3cccnc3)C[C@H]2Cc2ccc3ccccc3c2)cc(C(F)(F)F)c1.Cl.Cl`, with 162 to 168 °C.
For the molecule `Cl.Cl.O=C(c1cc(C(F)(F)F)cc(C(F)(F)F)c1)N1CCN(CCCc2cccnc2)C[C@H]1Cc1ccc(Cl)c(O)c1`, the melting point lay in the range of 65 to 70 °C.
As for `COc1cc(C[C@@H]2CN(Cc3cnn(C)c3)CCN2C(=O)c2cc(C(F)(F)F)cc(C(F)(F)F)c2)ccc1F.Cl`, the melting point lay within 127 to 135 °C.
Turning to `COc1cc(C[C@@H]2CN(Cc3cccnc3)CCN2C(=O)c2cc(C(F)(F)F)cc(C(F)(F)F)c2)ccc1F.Cl.Cl`, the melting point is 143 to 147 °C.
Regarding `COC[C@@H]1CN(CCN2CCN(C(=O)c3cc(SC)cc(C(F)(F)F)c3)[C@H](Cc3ccc(C)c(O)c3)C2)CCO1.Cl.Cl`, the melting point was 154 to 168 °C.
As for `COC[C@@H]1CN(CCN2CCN(C(=O)c3cc(C(F)(F)F)cc(S(=O)(=O)N(C)C)c3)[C@H](Cc3ccc(C)c(O)c3)C2)CCO1.Cl.Cl`, the melting point was 153.5 to 160 °C.
In turn, `Cc1ccc(C[C@@H]2CN(Cc3ccc4ncccc4c3)CCN2C(=O)c2cc(C(F)(F)F)cc(C(F)(F)F)c2)cc1O.Cl.Cl` showed a melting point of 170 to 200 °C.
With `Cc1ccc(C[C@@H]2CN(Cc3cnn(C)c3)CCN2C(=O)c2cc(C(F)(F)F)cc(C(F)(F)F)c2)cc1O.Cl`, the melting point is 160 to 180 °C.
The value for `Cc1ccc(CC2CN(CCN3C[C@H]4C[C@H]3C(C)(C)O4)CCN2C(=O)c2cc(C(F)(F)F)cc(C(F)(F)F)c2)cc1O.Cl.Cl` (stereo partly drawn) was 173 to 185 °C; that for `COC[C@H]1CN(CCN2CCN(C(=O)c3cc(C(F)(F)F)cc(C(F)(F)F)c3)[C@H](Cc3ccc(C)c(O)c3)C2)CCO1.Cl.Cl` was 225 to 235 °C.
Molecule `Cc1ccc(C[C@@H]2CN(CCN3[C@@H](C)COC[C@@H]3C)CCN2C(=O)c2cc(C(F)(F)F)cc(C(F)(F)F)c2)cc1O.Cl.Cl` gave a melting point of 240 to 250 °C.
`CNc1cc(C(=O)N2CCN(CCN3C[C@@H](C)O[C@@H](C)C3)C[C@H]2Cc2ccc(Cl)cc2)cc(C(F)(F)F)c1.Cl.Cl` came in with a melting point of 245.6 to 248.7 °C.
The value for `C[C@@H]1CN(CCN2CCN(C(=O)c3cc(F)cc(C(F)(F)F)c3)[C@H](Cc3ccc(Cl)cc3)C2)C[C@H](C)O1.Cl.Cl` was 80.1 to 82.5 °C.
With `C[C@@H]1CN(CCN2CCN(C(=O)c3cc(Cl)cc(Cl)c3)[C@H](Cc3ccc(Cl)cc3)C2)C[C@H](C)O1.Cl.Cl`, the melting point was in the range of 140.1 to 143.8 °C.
Then `Cl.Cl.Cl.Cl.O=C(c1cc(-c2ccncc2)cc(C(F)(F)F)c1)N1CCN(CCN2CCc3ncccc3C2)C[C@H]1Cc1ccc(Cl)cc1`, with 206 to 217 °C.
Molecule `Cl.Cl.Cl.O=C(c1cc(F)cc(C(F)(F)F)c1)N1CCN(CCN2CCc3ncccc3C2)C[C@H]1Cc1ccc(Cl)cc1` registered a melting point of 127.3 to 130.9 °C.
Regarding `Cc1ccc(C[C@@H]2CN(Cc3csc(N)n3)CCN2C(=O)c2cc(C(F)(F)F)cc(C(F)(F)F)c2)cc1O.Cl.Cl`, the melting point was in the range of 205 to 215 °C.
Then `Cc1ccc(C[C@@H]2CN(Cc3nsc(N)n3)CCN2C(=O)c2cc(C(F)(F)F)cc(C(F)(F)F)c2)cc1O.Cl.Cl`, with 177 to 182 °C; and `COc1cc(C(=O)N2CCN(CCCc3cccnc3)C[C@H]2Cc2ccc(C(F)(F)F)cc2)cc(C(F)(F)F)c1.Cl.Cl`, with 70 to 80 °C.
For the molecule `COC[C@@H]1CN(C/C=C\CN2CCN(C(=O)c3cc(C(F)(F)F)cc(C(F)(F)F)c3)[C@H](Cc3ccc(C)c(O)c3)C2)CCO1.Cl.Cl`, the melting point lay in the range of 180 to 200 °C.
For the molecule `COC[C@@H]1COCCN1CCN1CCN(C(=O)c2cc(C(F)(F)F)cc(C(F)(F)F)c2)C(Cc2ccc(C)c(O)c2)C1.Cl.Cl` (stereo partly drawn), the melting point was in the range of 167 to 172 °C.
`CNc1cc(C[C@@H]2CN(CCN3CCO[C@H](COC)C3)CCN2C(=O)c2cc(C(F)(F)F)cc(C(F)(F)F)c2)ccc1C.Cl.Cl.Cl` yielded a melting point of 156 to 163 °C.
For the molecule `COCC1(COC)CN(CCN2CCN(C(=O)c3cc(C(F)(F)F)cc(C(F)(F)F)c3)[C@H](Cc3ccc(C(F)(F)F)cc3)C2)CCO1.Cl.Cl`, the melting point lay in the range of 123 to 149 °C.
On to `Cl.Cl.O=C(c1cc(C(F)(F)F)cc(C(F)(F)F)c1)N1CCN(CCN2CC3CCC(C2)O3)C[C@H]1Cc1ccc(C(F)(F)F)cc1`, for which the melting point was 232 to 250 °C.
The value for `CN(C)S(=O)(=O)c1cc(C(=O)N2CCN(CCN3CCc4ncccc4C3)C[C@H]2Cc2ccc(C(F)(F)F)cc2)cc(C(F)(F)F)c1.Cl.Cl.Cl` was 190 to 194 °C; that for `COC[C@H]1CN(CCN2CCN(C(=O)c3cc(C(F)(F)F)cc(C(F)(F)F)c3)[C@H](Cc3ccc(C(F)(F)F)cc3)C2)CCO1.Cl.Cl` was 188 to 194 °C; that for `Cl.Cl.O=C(c1cc(C(F)(F)F)cc(C(F)(F)F)c1)N1CCN(CCN2CCC[C@H]2CO)C[C@H]1Cc1ccc(C(F)(F)F)cc1` was 221 to 224 °C.
As for `COC[C@@H]1C[C@H](COC)CN(CCN2CCN(C(=O)c3cc(C(F)(F)F)cc(C(F)(F)F)c3)[C@H](Cc3ccc(C(F)(F)F)cc3)C2)C1.Cl.Cl`, the melting point lay within 157 to 160 °C.
As for `COc1cc(C[C@@H]2CN(CCN3[C@H](CO)CCC[C@@H]3CO)CCN2C(=O)c2cc(C(F)(F)F)cc(C(F)(F)F)c2)ccc1F.Cl.Cl`, the melting point was 159 to 161 °C.
`COc1cc(C(=O)N2CCN(CCN3CCc4ncccc4C3)C[C@H]2Cc2ccc(C)c(O)c2)cc(C(F)(F)F)c1.Cl.Cl.Cl` yielded a melting point of 192 to 208 °C.
The value for `COc1cc(C(=O)N2CCN(CC#CCN3CCOCC3(C)C)C[C@H]2Cc2ccc(C)c(O)c2)cc(C(F)(F)F)c1.Cl.Cl` was 181 to 188 °C; that for `C[C@@H]1CN(CCN2CCN(C(=O)c3cc(Cl)cc(C(F)(F)F)c3)[C@H](Cc3ccc(Cl)c(O)c3)C2)C[C@H](C)O1.Cl.Cl` was 196 to 199 °C; that for `Cl.Cl.Cl.O=C(c1cc(Cl)cc(C(F)(F)F)c1)N1CCN(CCN2CCc3ncccc3C2)C[C@H]1Cc1ccc(Cl)c(O)c1` was 200 to 204 °C.
In turn, `Cl.Cl.Cl.Cl.O=C(c1cc(-c2ccncc2)cc(C(F)(F)F)c1)N1CCN(CCN2CCc3ncccc3C2)C[C@H]1Cc1ccc(C(F)(F)F)cc1` had a melting point of 205 to 218 °C.
The molecule `COC[C@@H]1CN(CCN2CCN(C(=O)c3cc(C)cc(C(F)(F)F)c3)[C@H](Cc3ccc(Cl)cc3)C2)CCO1.Cl.Cl` registered a melting point of 148 to 151 °C.
Then `COC[C@@H]1CN(CCN2CCN(C(=O)c3cc(SC)cc(C(F)(F)F)c3)[C@H](Cc3ccc(Cl)c(O)c3)C2)CCO1.Cl.Cl`, with 169 to 174 °C; and `COC[C@@H]1CN(CCN2CCN(C(=O)c3cc(C(F)(F)F)cc(C(F)(F)F)c3)[C@H](Cc3ccc(C(C)C)c(O)c3)C2)CCO1.Cl.Cl`, with 218 to 228 °C; and `COc1cc(C[C@@H]2CN(CCN3CCc4ncccc4C3)CCN2C(=O)c2cc(C(F)(F)F)cc(C(F)(F)F)c2)ccc1F.Cl.Cl.Cl`, with 175 to 185 °C.
For the molecule `COC[C@@H]1CN(CCN2CCN(C(=O)c3cc(C(F)(F)F)cc(C(F)(F)F)c3)[C@H](Cc3ccc(F)c(O)c3)C2)CCO1.Cl.Cl`, the melting point lay within 156 to 168 °C.
Molecule `CC1(C)COCCN1CC#CCN1CCN(C(=O)c2cc(C(F)(F)F)cc(C(F)(F)F)c2)[C@H](Cc2ccc(F)c(O)c2)C1.Cl.Cl` showed a melting point of 180 to 184 °C.
The value for `COC[C@@H]1CN(CCN2CCN(C(=O)c3cc(C(F)(F)F)cc(C(F)(F)F)c3)[C@H](Cc3ccc(F)c(OC)c3)C2)CCO1.Cl.Cl` was 180 to 190 °C.
`COC[C@@H]1CN(CCN2CCN(C(=O)c3cc(C(F)(F)F)cc(C(F)(F)F)c3)[C@H](Cc3ccc(F)c(F)c3)C2)CCO1.Cl.Cl` displayed a melting point of 196 to 198 °C.
Consider `COC[C@@H]1CN(CCN2CCN(C(=O)c3cc(OC)cc(C(F)(F)F)c3)[C@H](Cc3ccc(C(F)(F)F)c(OC)c3)C2)CCO1.Cl.Cl`, for which the melting point was 135 to 140 °C.
On to `Cl.Cn1cc(CN2CCN(C(=O)c3cc(C(F)(F)F)cc(C(F)(F)F)c3)[C@H](Cc3ccc(C(F)(F)F)cc3)C2)cn1`, for which the melting point lay in the range of 200 to 229 °C.
Then `COc1cc(C(=O)N2CCN(CCN3CCc4ncccc4C3)C[C@H]2Cc2ccc(C(F)(F)F)cc2)cc(C(F)(F)F)c1.Cl.Cl.Cl`, with 185 to 191 °C; and `C[C@@H]1CN(CCN2CCN(C(=O)c3cc(C(F)(F)F)cc(C(F)(F)F)c3)[C@H](Cc3ccc(Cl)cc3)C2)C[C@H](C)O1.Cl.Cl`, with 150 to 175 °C (dec.).
In turn, `C[C@@H]1CN(CCN2CCN(C(=O)c3cc(C(F)(F)F)cc(C(F)(F)F)c3)[C@H](Cc3ccc(Cl)c(O)c3)C2)C[C@H](C)O1.Cl.Cl` had a melting point of 172 to 175 °C.
The molecule `COc1cc(C(=O)N2CCN(CCN3CCc4ncccc4C3)C[C@H]2Cc2ccc(Cl)cc2)cc(C(F)(F)F)c1.Cl.Cl.Cl` gave a melting point of 140 to 170 °C.
For the molecule `Cl.Cl.O=C(c1cc(C(F)(F)F)cc(C(F)(F)F)c1)N1CCN(CCN2CCC(F)(F)CC2)C[C@H]1Cc1ccc(F)cc1`, the melting point was in the range of 264 to 270.6 °C.
Molecule `COc1cc(C(=O)N2CCN(CCN3C[C@@H](C)O[C@@H](C)C3)C[C@H]2Cc2ccc3ccccc3c2)cc(C(F)(F)F)c1.Cl.Cl` came in with a melting point of 188 to 193 °C.
The value for `Cl.Cl.Cl.O=C(c1cc(C(F)(F)F)cc(C(F)(F)F)c1)N1CCN(CCN2CCc3ncccc3C2)C[C@H]1Cc1ccc(Cl)c(O)c1` was 237 to 243 °C (dec.); that for `COc1cc(C(=O)N2CCN(CCN3CCc4ncccc4C3)C[C@H]2Cc2ccc3ccccc3c2)cc(C(F)(F)F)c1.Cl.Cl.Cl` was 173 to 183 °C.
`COC[C@H]1CN(CCN2CCN(C(=O)c3cc(OC)cc(C(F)(F)F)c3)[C@H](Cc3c[nH]c4ccccc34)C2)CCO1.Cl.Cl` displayed a melting point of 200 to 210 °C.
Consider `COc1cc(C(=O)N2CCN(CCN3C[C@@H](C)O[C@@H](C)C3)C[C@H]2Cc2c[nH]c3ccccc23)cc(C(F)(F)F)c1.Cl.Cl`, for which the melting point was in the range of 188 to 200 °C.

In general, melting point refers to the temperature of the solid-liquid transition.
